From patent publication US20200262865A1, “COMPOSITIONS AND METHODS FOR TREATING CLOSTRIDIUM ASSOCIATED DISEASES” (REGENTS OF THE UNIVERSITY OF MINNESOTA, priority 2016, published 2020)
Read-outs that look alike come from different tables or passages of the source.

Key:
[1] = rat, in vivo; cited from earlier work
[2] = test system: Spores from a NAP1 strain of C. difficile; assay: Optical density (OD600) C. difficile spore germination assay; assay type: cell-based, Clostridium difficile; settings: BHIS with 2000 μM TCA, OD600 over 20 minutes; for IC100: read-out: concentration giving essentially complete inhibition of spore germination
NAP1 spores = assay: Phase-contrast (microscope) spore count assay; assay type: cell-based, Clostridium difficile; settings: for Percent Spore Germination t20 / Percent Spore Germination Relative to control / Percent Spore Germination t0: 10 μM bile acid analog; for Percent Spore Germination t20 / Percent Spore Germination Relative to control / inhibitor of spore germination (rating in words from Table 1 data): 2000 μM taurocholic acid; for Percent Spore Germination t20 / Percent Spore Germination Relative to control: after 20 minutes; for Percent Spore Germination t0: time zero, before exposure to TCA; for inhibitor of spore germination (rating in words from Table 1 data): 10 μM, 20 minutes
[3] = test system: highly virulent NAP1 strain of C. difficile; settings: cited from earlier work
[4] = Clostridioides difficile, 20 min

| SMILES | IC100 [2, 4] [µM] | Percent Spore Germination t20 (NAP1 spores) [%] | Percent Spore Germination Relative to control (NAP1 spores) [%] | Percent Spore Germination t0 (NAP1 spores) [%] | inhibitor of spore germination (rating in words from Table 1 data) (NAP1 spores) | also measured |
| --- | --- | --- | --- | --- | --- | --- |
| CC(CCC(=O)O)C1CCC2C3C(OS(=O)(=O)O)CC4CC(O)CCC4(C)C3CCC12C (stereo not shown) [C7-sulfated UDCA] | – | – | – | – | – | absorption from the colon [1]: poorly absorbed |
| COC(=O)CC[C@@H](C)[C@H]1CC[C@H]2[C@@H]3[C@H](OC)C[C@@H]4C[C@H](O)CC[C@]4(C)[C@H]3CC[C@]12C [Comparative Example 14] | 500 | – | – | – | – | – |
| C[C@H](CCC1=NC(C)(C)CO1)[C@H]1CC[C@H]2[C@@H]3[C@@H](O)C[C@@H]4C[C@H](O)CC[C@]4(C)[C@H]3CC[C@]12C [Example 9] | 500 | – | – | – | – | – |
| C[C@H](CCc1nnn[nH]1)[C@H]1CCC2C3C(CC[C@@]21C)[C@@]1(C)CC[C@@H](O)CC1C[C@@H]3O (stereo partly shown) [Example 12] | – | 29 ± 4 | 19 ± 4 | 17 ± 4 | moderate inhibitors | – |
| COC(=O)CC[C@@H](C)[C@H]1CC[C@H]2[C@@H]3C[C@H](O)[C@@H]4C[C@H](O)CC[C@]4(C)[C@H]3CC[C@]12C [Example 3] | 500 | – | – | – | – | – |
| CO[C@@H]1CC[C@@]2(C)[C@@H](C1)C[C@H](O)[C@@H]1[C@@H]2CC[C@]2(C)[C@@H]([C@H](C)CCc3nnn[n-]3)CC[C@@H]12.[Na+] [Example 15] | – | 31 ± 4 | 26 ± 4 | 16 ± 4 | moderate inhibitors | – |
| CO[C@@H]1CC[C@@]2(C)[C@@H](C1)C[C@@H](O)[C@@H]1[C@@H]2CC[C@]2(C)[C@@H]([C@H](C)CCC(=O)O)CC[C@@H]12 [KLS-1-012B] | – | – | – | – | – | concentration giving partial inhibition of spore germination [2]: 0.1 mM |
| CCCCNC(=O)CC[C@@H](C)[C@H]1CC[C@H]2[C@@H]3[C@@H](O)C[C@@H]4C[C@H](O)CC[C@]4(C)[C@H]3CC[C@]12C [Comparative Example 4] | 500 | – | – | – | – | – |
| CO[C@@H]1CC[C@@]2(C)[C@@H](C1)C[C@H](OC)[C@@H]1[C@@H]2CC[C@]2(C)[C@@H]([C@H](C)CCC(=O)O)CC[C@@H]12 [KLS-1-014A] | – | – | – | – | – | concentration giving partial inhibition of spore germination [2]: 1.0 mM |
| COC(=O)CC[C@@H](C)[C@H]1CC[C@H]2[C@@H]3[C@@H](OC)C[C@@H]4C[C@H](O)CC[C@]4(C)[C@H]3CC[C@]12C [Comparative Example 11] | 500 | – | – | – | – | – |
| COC(=O)CC[C@@H](C)[C@H]1CC[C@H]2[C@@H]3[C@@H](O)C[C@@H]4C[C@H](O)CC[C@]4(C)[C@H]3CC[C@]12C [Comparative Example 2] | 100 | – | – | – | – | – |
| CO[C@@H]1CC[C@@]2(C)[C@@H](C1)C[C@@H](O)[C@@H]1[C@@H]2CC[C@]2(C)[C@@H]([C@H](C)CCc3nnn[n-]3)CC[C@@H]12.[Na+] [Example 16] | – | 21 ± 4 | 8 ± 4 | 16 ± 4 | potent inhibitors | IC100 [2]: 5 µM |
| COC(=O)CC[C@@H](C)[C@H]1CC[C@H]2[C@@H]3[C@@H](O)C[C@@H]4C[C@H](OC)CC[C@]4(C)[C@H]3CC[C@]12C [KLS-1-031C] | 500 | – | – | – | – | – |
| COC(=O)CC[C@@H](C)[C@H]1CC[C@H]2[C@@H]3[C@H](O)C[C@@H]4C[C@H](OC)CC[C@]4(C)[C@H]3CC[C@]12C [KLS-1-029D] | 500 | – | – | – | – | – |
| C[C@H](CCC(=O)N1CCCC1)[C@H]1CC[C@H]2[C@@H]3[C@H](O)C[C@@H]4C[C@H](O)CC[C@]4(C)[C@H]3CC[C@]12C [Example 2] | 100 | – | – | – | – | – |
| CO[C@@H]1CC[C@@]2(C)[C@@H](C1)C[C@H](O)[C@@H]1[C@@H]2CC[C@]2(C)[C@@H]([C@H](C)CCC(=O)O)CC[C@@H]12 [KLS-1-014B] | – | – | – | – | – | concentration giving partial inhibition of spore germination [2]: 0.50 mM |
| CO[C@H]1C[C@@H]2C[C@H](O)CC[C@]2(C)[C@H]2CC[C@]3(C)[C@@H]([C@H](C)CCC(=O)O)CC[C@H]3[C@H]12 [Comparative Example 10, reference compound] | – | 71 ± 2 | 75 ± 2 | 25 ± 4 | weak inhibitors | concentration giving partial inhibition of spore germination [2]: 0.5 mM |
| COC(=O)CC[C@@H](C)[C@H]1CC[C@H]2[C@@H]3[C@H](O)C[C@@H]4C[C@H](O)CC[C@]4(C)[C@H]3CC[C@]12C [Comparative Example 1, reference compound] | 500 | 71 ± 1 | 73 ± 1 | 25 ± 6 | weak inhibitors | – |
| CO[C@@H]1CC[C@@]2(C)[C@@H](C1)C[C@H](OS(=O)(=O)[O-])[C@@H]1[C@@H]2CC[C@]2(C)[C@@H]([C@H](C)CCc3nnn[n-]3)CC[C@@H]12.[Na+].[Na+] [Example 17] | – | 44 ± 3 | 42 ± 3 | 21 ± 3 | moderate inhibitors | – |
| CCCCNC(=O)CC[C@@H](C)[C@H]1CC[C@H]2[C@@H]3[C@H](O)C[C@@H]4C[C@H](O)CC[C@]4(C)[C@H]3CC[C@]12C [Comparative Example 3] | 500 | – | – | – | – | – |
| CC(=O)O[C@@H]1CC[C@@]2(C)[C@@H](C1)C[C@@H](OC(C)=O)[C@@H]1[C@@H]2CC[C@]2(C)[C@@H]([C@H](C)CCC(N)=O)CC[C@@H]12 [Comparative Example 20] | 50 | – | – | – | – | – |
| C[C@H](CCC(=O)N1CCCC1)[C@H]1CC[C@H]2[C@@H]3[C@@H](O)C[C@@H]4C[C@H](O)CC[C@]4(C)[C@H]3CC[C@]12C [Example 1] | 100 | – | – | – | – | – |
| CO[C@@H]1CC[C@@]2(C)[C@@H](C1)C[C@H](OS(=O)(=O)[O-])[C@@H]1[C@@H]2CC[C@]2(C)[C@@H]([C@H](C)CCC(=O)N3CCCC3)CC[C@@H]12.[Na+] [Example 7] | – | 30 ± 6 | 9 ± 5 | 18 ± 2 | potent inhibitors | – |
| C[C@H](CCC(=O)Nc1cccc(S(=O)(=O)O)c1)[C@H]1CC[C@H]2[C@@H]3[C@H](O)C[C@@H]4C[C@H](O)CC[C@]4(C)[C@H]3C[C@H](O)[C@]12C [CamSA] | – | – | – | – | – | efficacy at inhibiting germination [3]: very little efficacy |
| CO[C@@H]1CC[C@@]2(C)[C@@H](C1)C[C@@H](OS(=O)(=O)[O-])[C@@H]1[C@@H]2CC[C@]2(C)[C@@H]([C@H](C)CCc3nnn[n-]3)CC[C@@H]12.[Na+].[Na+] [Example 18] | – | 48 ± 11 | 51 ± 11 | 20 ± 11 | moderate inhibitors | IC100 [2]: 25 µM |
| C[C@H](CCc1nnn[n-]1)[C@H]1CC[C@H]2[C@@H]3[C@H](O)C[C@@H]4C[C@H](O)CC[C@]4(C)[C@H]3CC[C@]12C.[Na+] [Example 14] | – | 22 ± 6 | 12 ± 6 | 15 ± 6 | potent inhibitors | IC100 [2]: 10 µM |
